In ChEMBL document CHEMBL1123640, “Synthesis and antiviral activity of carbocyclic analogues of xylofuranosides of 2-amino-6-substituted-purines and 2-amino-6-substituted-8-azapurines” (1987):
pEC50: −log10 of the molar value. ≈ marks a conversion by molar mass, not a printed value.

Columns and labels:
Human alphaherpesvirus 1 [1] = test: Minimum inhibitory concentration required to inhibit Herpes simplex virus type 1 (strain 377) induced cytopathogenic effects by 50%.; type: functional
Human alphaherpesvirus 1 [2] = test: The compound was tested in vitro for anti viral activity against Herpes simplex virus type 1 (strain 377); type: functional
P388 = test: Tested for inhibitory activity against P-388 leukemia cells; type: functional; details: Mus musculus, read-out: ED50 (the source's name)
Human alphaherpesvirus 1 [3] = test: The compound was tested in vitro for definite and significant anti viral activity against Herpes simplex virus type 1 (strain 377); value indicates definite and significant antiviral activity; type: functional
Human alphaherpesvirus 1 [4] = test: Minimum inhibitory concentration required to inhibit Herpes simplex virus type 1 (strain 377) induced cytopathogenic effects by 50%. (experiment 1); type: functional
Human alphaherpesvirus 1 [5] = test: Minimum inhibitory concentration required to inhibit Herpes simplex virus type 1 (strain 377) induced cytopathogenic effects by 50%. (experiment 2); type: functional
Human alphaherpesvirus 1 [6] = test: The compound was tested in vitro for definite and significant anti viral activity against Herpes simplex virus type 1 (strain 377) (experiment 1); value indicates definite and significant antiviral activity; type: functional
Human alphaherpesvirus 1 [7] = test: The compound was tested in vitro for definite and significant anti viral activity against Herpes simplex virus type 1 (strain 377) (experiment 2); value indicates definite and significant antiviral activity; type: functional
Human alphaherpesvirus 2 [8] = test: Minimum inhibitory concentration required to inhibit Herpes simplex virus type 2 (strain MS) induced cytopathogenic effects by 50%. (experiment 1); type: functional; details: Human alphaherpesvirus 2, MS
Human alphaherpesvirus 2 [9] = test: Minimum inhibitory concentration required to inhibit Herpes simplex virus type 2 (strain MS) induced cytopathogenic effects by 50%. (experiment 2); type: functional; details: Human alphaherpesvirus 2, MS
Human alphaherpesvirus 2 [10] = test: The compound was tested in vitro for definite and significant anti viral activity against Herpes simplex virus type 2 (strain MS) (experiment 1); value indicates definite and significant antiviral activity; type: functional
Human alphaherpesvirus 2 [11] = test: The compound was tested in vitro for definite and significant anti viral activity against Herpes simplex virus type 2 (strain MS) (experiment 2); value indicates definite and significant antiviral activity; type: functional
Human alphaherpesvirus 1 [12] = test: The compound was tested in vitro for anti viral activity against Herpes simplex virus type 1 (strain 377) (experiment 1); value indicates definite and significant antiviral activity; type: functional
Human alphaherpesvirus 1 [13] = test: The compound was tested in vitro for anti viral activity against Herpes simplex virus type 1 (strain 377) (experiment 2); value indicates definite and significant antiviral activity; type: functional
Homo sapiens [14] = species: Homo sapiens; test: Antiviral activity against Varicella-Zoster virus (VV) in human foreskin cell cultures in virus plaque reduction assay at 1 uM; type: functional
Homo sapiens [15] = species: Homo sapiens; test: Antiviral activity against Varicella-Zoster virus (VV) in human foreskin cell cultures in virus plaque reduction assay at 10 uM; type: functional
Homo sapiens [16] = species: Homo sapiens; test: Antiviral activity against Varicella-Zoster virus (VV) in human foreskin cell cultures in virus plaque reduction assay at 100 uM; type: functional
Homo sapiens [17] = species: Homo sapiens; test: Antiviral activity against Varicella-Zoster virus (VV) in human foreskin cell cultures in virus plaque reduction assay at 1000 uM; type: functional
Homo sapiens [18] = species: Homo sapiens; test: Antiviral activity against Varicella-Zoster virus (VV) in human foreskin cell cultures in virus plaque reduction assay at 3.2uM; type: functional
Homo sapiens [19] = species: Homo sapiens; test: Antiviral activity against Varicella-Zoster virus (VV) in human foreskin cell cultures in virus plaque reduction assay at 32 uM; type: functional
Homo sapiens [20] = species: Homo sapiens; test: Antiviral activity against Varicella-Zoster virus (VV) in human foreskin cell cultures in virus plaque reduction assay at 320 uM; type: functional
MRC5 [21] = test: Percent reduction of CPE (plaques) at the time of harvest at 1 uM; type: functional, Homo sapiens
MRC5 [22] = test: Percent reduction of CPE (plaques) at the time of harvest at 10 uM; type: functional, Homo sapiens
MRC5 [23] = test: Percent reduction of CPE (plaques) at the time of harvest at 100 uM; type: functional, Homo sapiens
MRC5 [24] = test: Percent reduction of CPE (plaques) at the time of harvest at 1000 uM (308 ug/mL); type: functional, Homo sapiens
MRC5 [25] = test: Percent reduction of CPE (plaques) at the time of harvest at 3.2 uM; type: functional, Homo sapiens
MRC5 [26] = test: Replication of human cytomegalovirus strain […] virus yield expressed as plaque forming units/mL at 1 uM; type: functional
MRC5 [27] = test: Replication of human cytomegalovirus strain […] virus yield expressed as plaque forming units/mL at 10 uM; type: functional
MRC5 [28] = test: Replication of human cytomegalovirus strain […] virus yield expressed as plaque forming units/mL at 100 uM; type: functional
MRC5 [29] = test: Cytotoxicity (gross morphology) was evaluated at 100 uM; type: functional, Homo sapiens
MRC5 [30] = test: Cytotoxicity (gross morphology) was evaluated at 32 uM; type: functional, Homo sapiens
MRC5 [31] = test: (§1) Cytotoxicity was determined at 100 uM; type: functional, Homo sapiens
MRC5 [32] = test: Replication of human cytomegalovirus strain […] virus yield expressed as plaque forming units/mL at 1000 uM (308 ug/mL); type: functional
MRC5 [33] = test: Replication of human cytomegalovirus strain […] virus yield expressed as plaque forming units/mL at 32 uM; type: functional
MRC5 [34] = test: Replication of human cytomegalovirus strain […] virus yield expressed as plaque forming units/mL at 320 uM; type: functional
MRC5 [35] = test: Cytotoxicity (gross morphology) was evaluated at 1 uM; type: functional, Homo sapiens
MRC5 [36] = test: Cytotoxicity (gross morphology) was evaluated at 10 uM; type: functional, Homo sapiens
MRC5 [37] = test: (§2) Cytotoxicity was determined at 32 uM; type: functional, Homo sapiens
MRC5 [38] = test: (§3) Cytotoxicity was determined at 320 uM; type: functional, Homo sapiens
MRC5 [39] = test: Percent reduction of CPE (plaques) at the time of harvest at 320 uM; type: functional, Homo sapiens
MRC5 [40] = test: Replication of human cytomegalovirus strain […] virus yield reduction assay in human diploid embryonic lung cells (MRC5) at 100 uM; type: functional
MRC5 [41] = test: Replication of human cytomegalovirus strain […] virus yield reduction assay in human diploid embryonic lung cells (MRC5) at 1 uM; type: functional
MRC5 [42] = test: Replication of human cytomegalovirus strain […] virus yield reduction assay in human diploid embryonic lung cells (MRC5) at 1000 uM (308 ug/mL); type: functional
MRC5 [43] = test: Replication of human cytomegalovirus strain […] virus yield reduction assay in human diploid embryonic lung cells (MRC5) at 10 uM; type: functional
MRC5 [44] = test: Replication of human cytomegalovirus strain […] virus yield reduction assay in human diploid embryonic lung cells (MRC5) at 3.2 uM; type: functional
MRC5 [45] = test: Replication of human cytomegalovirus strain […] virus yield reduction assay in human diploid embryonic lung cells (MRC5) at 32 uM; type: functional
MRC5 [46] = test: Replication of human cytomegalovirus strain […] virus yield reduction assay in human diploid embryonic lung cells (MRC5) at 320 uM; type: functional
MRC5 [47] = test: Replication of human cytomegalovirus strain […] virus yield expressed as plaque forming units/mL at 3.2 uM; type: functional
MRC5 [48] = test: Cytotoxicity (gross morphology) was evaluated at 3.2uM; type: functional, Homo sapiens
MRC5 [49] = test: Percent reduction of CPE (plaques) at the time of harvest at 32 uM; type: functional, Homo sapiens
Human alphaherpesvirus 2 [50] = test: Minimum inhibitory concentration required to inhibit Herpes simplex virus type 2 (strain MS) induced cytopathogenic effects by 50%. (experiment 1)
Human alphaherpesvirus 2 [51] = test: Minimum inhibitory concentration required to inhibit Herpes simplex virus type 2 (strain MS) induced cytopathogenic effects by 50%. (experiment 2)
Human alphaherpesvirus 2 [52] = test: The compound was tested in vitro for anti viral activity against Herpes simplex virus type 2 (strain MS) (experiment 1); value indicates definite and significant antiviral activity
Human alphaherpesvirus 2 [53] = test: The compound was tested in vitro for anti viral activity against Herpes simplex virus type 2 (strain MS) (experiment 2); value indicates definite and significant antiviral activity
Homo sapiens [54] = species: Homo sapiens; test: as §1; type: functional
Homo sapiens [55] = species: Homo sapiens; test: Cytotoxicity was determined at 1000 uM; type: functional
Homo sapiens [56] = species: Homo sapiens; test: as §2; type: functional
Homo sapiens [57] = species: Homo sapiens; test: as §3; type: functional
Homo sapiens [58] = species: Homo sapiens; test: Antiviral activity against Varicella-Zoster virus (VV) in human foreskin cell cultures in virus plaque reduction assay at 3.2 uM; type: functional
Human alphaherpesvirus 2 [59] = test: Minimum inhibitory concentration required to inhibit Herpes simplex virus type 2 (strain MS) induced cytopathogenic effects by 50%.; type: functional
Human alphaherpesvirus 2 [60] = test: The compound was tested in vitro for anti viral activity against Herpes simplex virus type 2 (strain MS); type: functional

Nc1nc(N)c2ncn(C3CC(CO)C(O)C3O)c2n1 (centres undefined)
MIC50 (Human alphaherpesvirus 1 [1]): 85 µg/mL (≈ 303 µM)
Virus rating (Human alphaherpesvirus 1 [2]): 2.7
pEC50 (P388): 4.41

Nc1nc(Cl)c2nnn(C3CC(CO)C(O)C3O)c2n1 (centres undefined)
MIC50 (Human alphaherpesvirus 1 [1]): 100 µg/mL (≈ 333 µM)
Virus rating (Human alphaherpesvirus 1 [2]): 0.6
pEC50 (P388): 4.30

Nc1nc(Cl)c2ncn(C3CC(CO)C(O)C3O)c2n1 (centres undefined)
MIC50 (Human alphaherpesvirus 1 [1]): 100 µg/mL (≈ 334 µM)
Virus rating (Human alphaherpesvirus 1 [2]): 1.8
pEC50 (P388): 3.66

Nc1nc(N)c2nnn(C3CC(CO)C(O)C3O)c2n1 (centres undefined)
MIC50 (Human alphaherpesvirus 1 [1]): 66.9 µg/mL (≈ 238 µM)
Virus rating (Human alphaherpesvirus 1 [3]): 2
pEC50 (P388): 5.28

COc1nc(N)nc2c1nnn2C1CC(CO)C(O)C1O (centres undefined)
pEC50 (P388): 4.20

Nc1nc(O)c2nnn(C3CC(CO)C(O)C3O)c2n1 (centres undefined)
MIC50 (Human alphaherpesvirus 1 [4]): 60.8 µg/mL (≈ 215 µM)
MIC50 (Human alphaherpesvirus 1 [5]): 93.1 µg/mL (≈ 330 µM)
Virus rating (Human alphaherpesvirus 1 [6]): 2.4
Virus rating (Human alphaherpesvirus 1 [7]): 2.5
MIC50 (Human alphaherpesvirus 2 [8]): 92.2 µg/mL (≈ 327 µM)
MIC50 (Human alphaherpesvirus 2 [9]): 240 µg/mL (≈ 852 µM)
Virus rating (Human alphaherpesvirus 2 [10]): 1.3
Virus rating (Human alphaherpesvirus 2 [11]): 1.1
pEC50 (P388): 5.80

Nc1nc(O)c2ncn(C3CC(CO)C(O)C3O)c2n1 (centres undefined)
MIC50 (Human alphaherpesvirus 1 [4]): 1.8 µg/mL (≈ 6.4 µM)
MIC50 (Human alphaherpesvirus 1 [5]): 3 µg/mL (≈ 10.7 µM)
Virus rating (Human alphaherpesvirus 1 [12]): 5.7
Virus rating (Human alphaherpesvirus 1 [13]): 5.6
Reduction (Homo sapiens [14]): 18%
Reduction (Homo sapiens [15]): 26%
Reduction (Homo sapiens [16]): 100%
Reduction (Homo sapiens [17]): 100%
Reduction (Homo sapiens [18]): 18%
Reduction (Homo sapiens [19]): 79%
Reduction (Homo sapiens [20]): 100%
Reduction (MRC5 [21]): 0%
Reduction (MRC5 [22]): 0%
Reduction (MRC5 [23]): 80%
Reduction (MRC5 [24]): 100%
Reduction (MRC5 [25]): 0%
CMV yield (MRC5 [26]): 96000 pfu/ml
CMV yield (MRC5 [27]): 96000 pfu/ml
CMV yield (MRC5 [28]): 100 pfu/ml
Cytotoxicity (MRC5 [29]): 0
Cytotoxicity (MRC5 [30]): 0
Cytotoxicity (MRC5 [31]): 0
CMV yield (MRC5 [32]): 0 pfu/ml
CMV yield (MRC5 [33]): 12800 pfu/ml
CMV yield (MRC5 [34]): 0 pfu/ml
Cytotoxicity (MRC5 [35]): 0
Cytotoxicity (MRC5 [36]): 0
Cytotoxicity (MRC5 [37]): 0
Cytotoxicity (MRC5 [38]): 0
Reduction (MRC5 [39]): 100%
Virus yield reduction (MRC5 [40]): 3.2
Virus yield reduction (MRC5 [41]): 0.2
Virus yield reduction (MRC5 [42]): 5.2
Virus yield reduction (MRC5 [43]): 0.2
Virus yield reduction (MRC5 [44]): 0.2
Virus yield reduction (MRC5 [45]): 1.1
Virus yield reduction (MRC5 [46]): 5.2
pEC50 (P388): 5.05
CMV yield (MRC5 [47]): 108000 pfu/ml
Cytotoxicity (MRC5 [48]): 0
Reduction (MRC5 [49]): 25%
MIC50 (Human alphaherpesvirus 2 [50]): 22.8 µg/mL (≈ 81.1 µM)
MIC50 (Human alphaherpesvirus 2 [51]): 23.5 µg/mL (≈ 83.5 µM)
Virus rating (Human alphaherpesvirus 2 [52]): 2.6
Virus rating (Human alphaherpesvirus 2 [53]): 3.9

Nc1nc2c(ncn2COCCO)c(=O)[nH]1 [ACYCLOVIR]
Cytotoxicity (Homo sapiens [54]): 0
Cytotoxicity (Homo sapiens [55]): 0
Cytotoxicity (Homo sapiens [56]): 0
Cytotoxicity (Homo sapiens [57]): 0
Reduction (Homo sapiens [14]): 35%
Reduction (Homo sapiens [15]): 41%
Reduction (Homo sapiens [16]): 94%
Reduction (Homo sapiens [17]): 100%
Reduction (Homo sapiens [58]): 32%
Reduction (Homo sapiens [19]): 79%
Reduction (Homo sapiens [20]): 100%

Nc1nc2c(ncn2COC(CO)CO)c(=O)[nH]1 [GANCICLOVIR]
Cytotoxicity (Homo sapiens [54]): 0
Reduction (Homo sapiens [55]): 0
Cytotoxicity (Homo sapiens [56]): 0
Cytotoxicity (Homo sapiens [57]): 0
Reduction (Homo sapiens [15]): 35%
Reduction (Homo sapiens [16]): 82%
Reduction (Homo sapiens [17]): 97%
Reduction (Homo sapiens [58]): 24%
Reduction (Homo sapiens [19]): 56%
Reduction (Homo sapiens [20]): 97%

Nc1ncnc2c1ncn2[C@@H]1O[C@H](CO)[C@@H](O)[C@@H]1O [VIDARABINE]
MIC50 (Human alphaherpesvirus 1 [1]): 9.8 µg/mL (≈ 36.7 µM)
Virus rating (Human alphaherpesvirus 1 [2]): 3.1
MIC50 (Human alphaherpesvirus 2 [59]): 30 µg/mL (≈ 112 µM)
Virus rating (Human alphaherpesvirus 2 [60]): 2.3
Cytotoxicity (Homo sapiens [54]): 0
Cytotoxicity (Homo sapiens [56]): 0
Reduction (Homo sapiens [15]): 44%
Reduction (Homo sapiens [16]): 97%
Reduction (Homo sapiens [58]): 18%
Reduction (Homo sapiens [19]): 97%
Reduction (Homo sapiens [20]): 100%
